Source: ChEMBL document CHEMBL1201862, “PubChem BioAssay data set” (2004)
The source made the active and inactive calls.

Key:
Troponin, cardiac muscle = Troponin, cardiac muscle (Homo sapiens, UniProt P19429+P45379+P63316); assay: Fluorescence-based biochemical high throughput dose response assay for activators of the calcium sensitivity of cardiac Regulated Thin Filaments (RTF). [Related pubchem assays (depositor defined):AID493008, AID493018, AID504382, AID504383]; assay type: protein-complex assay
[1] = target: Peroxisome proliferator-activated receptor gamma/Nuclear receptor corepressor 2 (Homo sapiens, UniProt P37231+Q9Y618); assay type: functional
Beta-galactosidase = Beta-galactosidase (Escherichia coli, UniProt Q8VNN2); assay: beta-galactosidase enzyme inhibitors and activators, dose response, artefact control for CCR6 antagonist project, biochemical, E. coli enzyme, set 3 (AID 504712); assay type: functional
[2] = target: Photoreceptor-specific nuclear receptor (Homo sapiens, UniProt Q9Y5X4); assay type: functional;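 also: potency for compounds that break the NR2E3 corepressor complex and count as activators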
[3] = target: T1, Kappa-type opioid receptor (Homo sapiens, UniProt P41145); assay: SAR analysis of Antagonists of the Kappa Opioid Receptor (KOR) using an Image-Based Assay - Set 3. [Related pubchem assays (depositor defined):AID1777, AID1785]; assay type: functional
[4] = target: T1, Kappa-type opioid receptor; assay: SAR analysis of small molecule antagonists of the kappa opioid receptor via a luminescent beta-arrestin assay - Set 3. [Related pubchem assays (depositor defined):AID1777, AID1778, AID1785, AID1786, AID1966, AID2133, AID2136, AID2285, AID2495]; assay type: functional
Mu-type opioid receptor = Mu-type opioid receptor (Homo sapiens, UniProt P35372); assay: SAR Analysis of Antagonists of the MOR Receptor using an Image-Based Assay - Set 3. [Related pubchem assays (depositor defined):AID1777, AID1785, AID1786, AID1966, AID2133, AID2136, AID2284, AID2285, AID2420]; assay type: functional
[5] = target: Delta-type opioid receptor (Homo sapiens, UniProt P41143); assay: SAR Analysis of Antagonists of the DOR Receptor using an Image-Based Assay - Set 3. [Related pubchem assays (depositor defined):AID1777, AID1785]; assay type: functional;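 also: U2OS cells expressing DOR1 and beta-arrestin GFP stimulated with 100 nM SNC80; imaging of GFP-tagged beta-arrestin moving into spots after receptor activation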
Delta-type opioid receptor, sequence (P41143 whole entry): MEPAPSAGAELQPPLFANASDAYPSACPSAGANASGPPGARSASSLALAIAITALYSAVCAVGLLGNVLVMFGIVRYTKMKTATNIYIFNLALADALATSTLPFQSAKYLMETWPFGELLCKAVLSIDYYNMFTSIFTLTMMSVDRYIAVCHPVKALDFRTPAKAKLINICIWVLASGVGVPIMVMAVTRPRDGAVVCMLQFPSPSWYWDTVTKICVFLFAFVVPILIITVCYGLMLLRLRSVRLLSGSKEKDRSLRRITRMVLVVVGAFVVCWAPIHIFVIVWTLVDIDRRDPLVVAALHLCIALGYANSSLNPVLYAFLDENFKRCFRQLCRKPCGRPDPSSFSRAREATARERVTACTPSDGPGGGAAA

T1 sequence (P41145 whole entry): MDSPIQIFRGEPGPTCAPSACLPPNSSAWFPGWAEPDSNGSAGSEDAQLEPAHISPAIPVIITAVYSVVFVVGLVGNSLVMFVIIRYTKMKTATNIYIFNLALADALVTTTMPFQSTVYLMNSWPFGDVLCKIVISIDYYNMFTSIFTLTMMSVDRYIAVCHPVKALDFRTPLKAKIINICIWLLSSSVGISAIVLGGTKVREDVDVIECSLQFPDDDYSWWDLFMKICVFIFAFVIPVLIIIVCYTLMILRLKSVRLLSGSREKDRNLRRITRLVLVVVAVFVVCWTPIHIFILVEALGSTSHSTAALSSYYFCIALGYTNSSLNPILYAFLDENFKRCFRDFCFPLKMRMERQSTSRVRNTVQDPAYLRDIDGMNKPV
Mu-type opioid receptor, sequence (P35372 whole entry): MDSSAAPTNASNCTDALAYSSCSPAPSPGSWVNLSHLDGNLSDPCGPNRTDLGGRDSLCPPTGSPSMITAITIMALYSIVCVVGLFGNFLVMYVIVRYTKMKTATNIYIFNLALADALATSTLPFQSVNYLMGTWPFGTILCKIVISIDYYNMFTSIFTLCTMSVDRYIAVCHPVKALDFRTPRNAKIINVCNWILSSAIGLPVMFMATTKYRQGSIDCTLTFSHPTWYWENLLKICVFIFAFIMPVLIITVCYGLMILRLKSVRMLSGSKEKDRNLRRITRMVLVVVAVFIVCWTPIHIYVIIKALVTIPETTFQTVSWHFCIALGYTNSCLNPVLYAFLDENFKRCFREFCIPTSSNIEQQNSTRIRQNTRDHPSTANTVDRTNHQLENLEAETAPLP
Peroxisome proliferator-activated receptor gamma/Nuclear receptor corepressor 2, sequence (P37231 whole entry): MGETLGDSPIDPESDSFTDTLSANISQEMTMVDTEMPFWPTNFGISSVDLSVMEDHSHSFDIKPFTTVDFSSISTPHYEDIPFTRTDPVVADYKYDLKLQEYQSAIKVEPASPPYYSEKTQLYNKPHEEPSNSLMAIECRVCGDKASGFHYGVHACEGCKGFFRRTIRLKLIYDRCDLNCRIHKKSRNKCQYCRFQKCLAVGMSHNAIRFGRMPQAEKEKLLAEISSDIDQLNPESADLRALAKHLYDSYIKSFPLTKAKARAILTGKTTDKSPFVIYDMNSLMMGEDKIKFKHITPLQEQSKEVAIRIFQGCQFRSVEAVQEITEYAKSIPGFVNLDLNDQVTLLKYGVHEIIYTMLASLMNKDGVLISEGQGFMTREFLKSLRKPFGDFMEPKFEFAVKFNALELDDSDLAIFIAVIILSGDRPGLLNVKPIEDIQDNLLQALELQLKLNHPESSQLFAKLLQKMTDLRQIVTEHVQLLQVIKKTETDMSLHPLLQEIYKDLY
Peroxisome proliferator-activated receptor gamma/Nuclear receptor corepressor 2, sequence (Q9Y618 whole entry): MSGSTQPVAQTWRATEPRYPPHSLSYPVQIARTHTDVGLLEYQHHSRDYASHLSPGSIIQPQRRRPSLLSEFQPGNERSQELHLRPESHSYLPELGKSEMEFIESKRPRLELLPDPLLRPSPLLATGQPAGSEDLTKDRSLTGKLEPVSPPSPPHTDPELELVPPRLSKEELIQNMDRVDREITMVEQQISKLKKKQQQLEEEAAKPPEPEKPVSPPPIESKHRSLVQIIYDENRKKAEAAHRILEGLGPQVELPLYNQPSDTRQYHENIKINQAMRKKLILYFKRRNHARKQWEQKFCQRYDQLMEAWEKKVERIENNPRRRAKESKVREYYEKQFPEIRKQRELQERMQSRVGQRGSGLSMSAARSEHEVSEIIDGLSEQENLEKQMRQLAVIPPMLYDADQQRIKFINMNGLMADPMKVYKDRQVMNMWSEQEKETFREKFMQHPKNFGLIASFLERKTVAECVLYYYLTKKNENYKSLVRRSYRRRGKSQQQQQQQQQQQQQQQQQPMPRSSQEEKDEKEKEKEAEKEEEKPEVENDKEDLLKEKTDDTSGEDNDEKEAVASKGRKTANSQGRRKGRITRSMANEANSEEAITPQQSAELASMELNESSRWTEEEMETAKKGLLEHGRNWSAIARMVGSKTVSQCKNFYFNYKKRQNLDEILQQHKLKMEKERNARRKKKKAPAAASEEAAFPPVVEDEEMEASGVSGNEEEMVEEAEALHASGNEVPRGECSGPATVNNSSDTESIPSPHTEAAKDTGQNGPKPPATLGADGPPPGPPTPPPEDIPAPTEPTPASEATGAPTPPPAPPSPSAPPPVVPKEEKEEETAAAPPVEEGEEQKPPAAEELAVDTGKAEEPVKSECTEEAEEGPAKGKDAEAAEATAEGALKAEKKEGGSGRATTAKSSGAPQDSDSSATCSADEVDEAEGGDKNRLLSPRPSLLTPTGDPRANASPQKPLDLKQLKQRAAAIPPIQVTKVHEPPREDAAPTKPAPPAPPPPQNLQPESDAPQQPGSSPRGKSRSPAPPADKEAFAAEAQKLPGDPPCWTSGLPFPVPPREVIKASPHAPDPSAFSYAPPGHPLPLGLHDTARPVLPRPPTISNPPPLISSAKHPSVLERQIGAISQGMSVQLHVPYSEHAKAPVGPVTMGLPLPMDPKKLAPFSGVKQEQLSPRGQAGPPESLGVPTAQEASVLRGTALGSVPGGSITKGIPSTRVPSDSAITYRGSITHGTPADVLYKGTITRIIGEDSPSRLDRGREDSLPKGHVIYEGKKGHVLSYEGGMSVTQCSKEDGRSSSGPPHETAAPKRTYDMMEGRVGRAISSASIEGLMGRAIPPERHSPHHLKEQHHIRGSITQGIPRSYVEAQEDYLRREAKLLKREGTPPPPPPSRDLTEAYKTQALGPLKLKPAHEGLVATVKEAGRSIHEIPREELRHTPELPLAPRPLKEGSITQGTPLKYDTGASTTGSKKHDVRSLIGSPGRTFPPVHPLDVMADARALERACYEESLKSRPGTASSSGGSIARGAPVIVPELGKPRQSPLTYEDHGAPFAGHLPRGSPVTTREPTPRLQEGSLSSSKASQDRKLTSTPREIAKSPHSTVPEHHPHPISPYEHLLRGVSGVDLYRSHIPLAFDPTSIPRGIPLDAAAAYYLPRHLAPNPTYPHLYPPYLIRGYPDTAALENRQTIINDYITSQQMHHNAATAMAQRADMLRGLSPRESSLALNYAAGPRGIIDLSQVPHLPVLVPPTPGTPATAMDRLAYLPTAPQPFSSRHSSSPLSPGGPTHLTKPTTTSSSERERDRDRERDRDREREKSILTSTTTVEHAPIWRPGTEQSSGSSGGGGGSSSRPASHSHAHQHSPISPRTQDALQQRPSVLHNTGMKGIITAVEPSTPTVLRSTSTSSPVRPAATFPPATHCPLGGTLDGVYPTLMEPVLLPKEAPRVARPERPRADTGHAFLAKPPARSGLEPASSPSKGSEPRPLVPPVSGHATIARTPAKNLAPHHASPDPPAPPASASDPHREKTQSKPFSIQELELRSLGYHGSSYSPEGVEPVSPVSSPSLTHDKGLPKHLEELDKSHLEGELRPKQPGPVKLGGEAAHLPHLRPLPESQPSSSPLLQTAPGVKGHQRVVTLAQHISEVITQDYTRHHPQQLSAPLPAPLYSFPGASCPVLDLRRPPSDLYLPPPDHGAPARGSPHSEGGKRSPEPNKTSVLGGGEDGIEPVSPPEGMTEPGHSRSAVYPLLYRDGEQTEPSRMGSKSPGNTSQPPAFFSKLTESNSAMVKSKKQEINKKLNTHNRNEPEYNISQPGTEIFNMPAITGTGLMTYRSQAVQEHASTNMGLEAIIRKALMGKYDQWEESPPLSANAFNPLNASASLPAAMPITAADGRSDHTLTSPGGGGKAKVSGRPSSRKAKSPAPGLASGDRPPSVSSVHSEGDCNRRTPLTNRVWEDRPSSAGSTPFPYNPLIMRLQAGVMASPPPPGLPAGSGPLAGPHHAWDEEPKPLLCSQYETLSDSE
Photoreceptor-specific nuclear receptor, sequence (Q9Y5X4 whole entry): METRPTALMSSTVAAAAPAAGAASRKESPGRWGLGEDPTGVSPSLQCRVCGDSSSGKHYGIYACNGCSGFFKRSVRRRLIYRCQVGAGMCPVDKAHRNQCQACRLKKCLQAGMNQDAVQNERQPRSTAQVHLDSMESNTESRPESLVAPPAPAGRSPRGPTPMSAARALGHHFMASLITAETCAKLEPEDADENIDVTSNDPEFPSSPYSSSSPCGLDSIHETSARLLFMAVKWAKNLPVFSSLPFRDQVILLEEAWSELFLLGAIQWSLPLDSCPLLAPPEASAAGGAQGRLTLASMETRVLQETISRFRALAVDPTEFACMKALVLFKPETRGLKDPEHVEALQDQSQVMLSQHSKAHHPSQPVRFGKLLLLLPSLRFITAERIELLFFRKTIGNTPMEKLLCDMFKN

| Structure (SMILES) | EC50 (Troponin, cardiac muscle) | IC50 [1] | IC50 (Beta-galactosidase) | IC50 [2] | IC50 [3] | IC50 [4] | IC50 (Mu-type opioid receptor) | IC50 [5] |
| --- | --- | --- | --- | --- | --- | --- | --- | --- |
| N=C1c2ccccc2CN1c1ccc(S(=O)(=O)N2CCCCC2)cc1 | > 71.5 µM (inactive) | – | – | – | – | – | – | – |
| CCN(CC(=O)NC(C)(C)C)Cc1nc(O)c2cc(Br)cc(Br)c2n1 | – | 15 µM (not active) | > 66.6 µM (inactive) | > 39.8 µM (not active) | – | – | – | – |
| COc1ccc(S(=O)(=O)NCc2ccc(C(=O)NCCN(Cc3ccc(Br)cc3)C(C)C)cc2)cc1 | – | – | – | – | 1.38 µM (active) | 13.5 µM (inactive) | > 32 µM (inactive) | > 32 µM (inactive) |
| Cc1cccc(S(=O)(=O)NCc2ccc(C(=O)NCCN(Cc3ccccc3)C(C)C)cc2)c1 | – | – | – | – | 0.872 µM (active) | 2.32 µM (active) | 7.99 µM (active) | > 32 µM (inactive) |
